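The compound was tested at five concentrations on cells cultured in 96-well plates, with a 48-hour exposure period. GI50: concentration for 50% inhibition of growth.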 Calls of active or inactive are those of the source. Rule as the data show it: active = GI50 up to about 1.1 µM and inactive = higher.
Columns and labels:
Assay in all cases: growth of human tumour cells (NCI), 48 h
HCT-116 = tested on: HCT-116
RXF 393 = tested on: RXF 393
A549 = tested on: A549
CCRF-CEM = tested on: CCRF-CEM
SNB-75 = tested on: SNB-75
RPMI-8226 = tested on: RPMI-8226
NCI-H522 = tested on: NCI-H522
UO-31 = tested on: UO-31
SN12C = tested on: SN12C
KM12 = tested on: KM12
MOLT-4 = tested on: MOLT-4
COLO 205 = tested on: COLO 205
LOX IMVI = tested on: LOX IMVI
OVCAR-3 = tested on: OVCAR-3
MCF7 = tested on: MCF7
OVCAR-4 = tested on: OVCAR-4
SR = tested on: SR
K562 = tested on: K562
EKVX = tested on: EKVX
HCC 2998 = tested on: HCC 2998
Hs-578T = tested on: Hs-578T
HOP-92 = tested on: HOP-92
SK-MEL-5 = tested on: SK-MEL-5
A498 = tested on: A498
UACC-257 = tested on: UACC-257
SF-295 = tested on: SF-295
U-251 = tested on: U-251
TK-10 = tested on: TK-10
HCT-15 = tested on: HCT-15
MDA-N = tested on: MDA-N
SK-OV-3 = tested on: SK-OV-3
UACC-62 = tested on: UACC-62
NCI/ADR-RES = tested on: NCI/ADR-RES
HL-60 = tested on: HL-60
ACHN = tested on: ACHN
NCI-H226 = tested on: NCI-H226
HT-29 = tested on: HT-29
786-0 = tested on: 786-0
MDA-MB-435 = tested on: MDA-MB-435
T47D = tested on: T47D
HOP-62 = tested on: HOP-62
MDA-MB-231 = tested on: MDA-MB-231
M14 = tested on: M14
SF-539 = tested on: SF-539
OVCAR-5 = tested on: OVCAR-5
IGROV-1 = tested on: IGROV-1
NCI-H23 = tested on: NCI-H23
SK-MEL-2 = tested on: SK-MEL-2
PC-3 = tested on: PC-3
Malme-3M = tested on: Malme-3M
OVCAR-8 = tested on: OVCAR-8
CAKI-1 = tested on: CAKI-1
SNB-19 = tested on: SNB-19
DU-145 = tested on: DU-145
BT-549 = tested on: BT-549
SW-620 = tested on: SW-620
NCI-H460 = tested on: NCI-H460
SK-MEL-28 = tested on: SK-MEL-28

Measured: GI50

COC(=O)CCc1ccc2c(c1)CC1(C2)Cc2ccc(CCC(=O)OC)cc2C1
inactive: HCT-116 > 100 µM | RXF 393 > 100 µM | A549 > 100 µM | CCRF-CEM 15.6 µM | RPMI-8226 28.4 µM | NCI-H522 34.5 µM | UO-31 > 100 µM | SN12C 68.5 µM | KM12 > 100 µM | MOLT-4 29.6 µM | COLO 205 57.5 µM | LOX IMVI 26.6 µM | OVCAR-3 77.4 µM | MCF7 48.6 µM | OVCAR-4 53.3 µM | SR 29.4 µM | K562 > 100 µM | EKVX > 100 µM | HCC 2998 > 100 µM | Hs-578T > 100 µM | HOP-92 35.4 µM | SK-MEL-5 24 µM | A498 > 100 µM | UACC-257 > 100 µM | SF-295 78 µM | U-251 40.1 µM | TK-10 > 100 µM | MDA-N > 100 µM | SK-OV-3 > 100 µM | UACC-62 > 100 µM | NCI/ADR-RES > 100 µM | HL-60 17.1 µM | ACHN > 100 µM | NCI-H226 38.8 µM | HT-29 62.7 µM | 786-0 > 100 µM | MDA-MB-435 > 100 µM | T47D 58.2 µM | HOP-62 62.7 µM | MDA-MB-231 89.9 µM | M14 > 100 µM | SF-539 > 100 µM | OVCAR-5 > 100 µM | IGROV-1 75.2 µM | NCI-H23 44.7 µM | SK-MEL-2 > 100 µM | PC-3 > 100 µM | Malme-3M 63.1 µM | OVCAR-8 60.1 µM
active: SNB-75 < 0.01 µM
> 100 µM: HCT-15

COC1CCC(OC2CC(C3(C)CCC4(CC(O)C(C)C(C(C)/C=C(\C)C(=O)C(C)CC(C)C(=O)O)O4)O3)OC3(OC(C4OC(O)(CO)C(C)CC4C)CC3C)C2C)OC1C (stereo unspecified)
0.0351 µM: HCT-15
inactive: OVCAR-5 2.99 µM | IGROV-1 1.79 µM
active: HCT-116 < 0.0279 µM | RXF 393 < 0.01 µM | A549 < 0.0154 µM | CCRF-CEM < 0.01 µM | SNB-75 0.022 µM | RPMI-8226 < 0.01 µM | CAKI-1 0.0982 µM | NCI-H522 < 0.01 µM | UO-31 0.0548 µM | SN12C < 0.0319 µM | KM12 0.0753 µM | MOLT-4 < 0.01 µM | SNB-19 0.0434 µM | COLO 205 < 0.0154 µM | LOX IMVI < 0.0253 µM | OVCAR-3 < 0.01 µM | MCF7 < 0.0208 µM | OVCAR-4 0.337 µM | SR < 0.01 µM | K562 < 0.0155 µM | EKVX 0.507 µM | HCC 2998 < 0.0247 µM | HOP-92 0.482 µM | SK-MEL-5 < 0.0201 µM | A498 < 0.0169 µM | UACC-257 < 0.0199 µM | SF-295 0.179 µM | U-251 < 0.0166 µM | DU-145 < 0.0501 µM | TK-10 0.646 µM | MDA-N 0.0811 µM | SK-OV-3 0.528 µM | UACC-62 0.132 µM | BT-549 < 0.0324 µM | SW-620 < 0.0269 µM | HL-60 < 0.01 µM | ACHN < 0.038 µM | NCI-H226 0.378 µM | HT-29 < 0.0313 µM | NCI-H460 < 0.0144 µM | SK-MEL-28 0.0362 µM | 786-0 < 0.0341 µM | MDA-MB-435 0.0923 µM | T47D < 0.01 µM | HOP-62 < 0.0156 µM | MDA-MB-231 0.0621 µM | M14 0.122 µM | SF-539 0.0453 µM | NCI-H23 < 0.0345 µM | SK-MEL-2 0.161 µM | PC-3 < 0.01 µM | Malme-3M < 0.0205 µM | OVCAR-8 < 0.0368 µM

COC(=O)C1=CC(=O)OC1(OO)c1ccccc1 (stereo unspecified)
54 µM: HCT-15
inactive: HCT-116 88.3 µM | RXF 393 > 100 µM | A549 > 100 µM | CCRF-CEM 18.7 µM | SNB-75 92.3 µM | CAKI-1 38.8 µM | NCI-H522 30.3 µM | UO-31 > 100 µM | SN12C > 100 µM | KM12 > 100 µM | MOLT-4 62.2 µM | SNB-19 > 100 µM | COLO 205 > 100 µM | LOX IMVI 94.8 µM | OVCAR-3 > 100 µM | MCF7 > 100 µM | OVCAR-4 > 100 µM | SR 42.1 µM | K562 33.5 µM | EKVX > 100 µM | HCC 2998 > 100 µM | HOP-92 30.8 µM | SK-MEL-5 > 100 µM | UACC-257 > 100 µM | SF-295 > 100 µM | U-251 > 100 µM | DU-145 > 100 µM | TK-10 > 100 µM | MDA-N > 100 µM | SK-OV-3 > 100 µM | UACC-62 > 100 µM | BT-549 > 100 µM | SW-620 68.1 µM | NCI/ADR-RES > 100 µM | HL-60 3.18 µM | ACHN > 100 µM | NCI-H226 > 100 µM | HT-29 56.4 µM | NCI-H460 > 100 µM | SK-MEL-28 > 100 µM | 786-0 35.6 µM | MDA-MB-435 > 100 µM | T47D > 100 µM | MDA-MB-231 > 100 µM | M14 > 100 µM | SF-539 > 100 µM | OVCAR-5 > 100 µM | IGROV-1 > 100 µM | NCI-H23 > 100 µM | SK-MEL-2 > 100 µM | PC-3 > 100 µM | Malme-3M 28.3 µM | OVCAR-8 > 100 µM

Reference: ChEMBL document CHEMBL1201862, “PubChem BioAssay data set” (2004)
